Measured values from patent publication US11419913B2, “Pharmaceutical compositions for inhibiting inflammatory cytokines” (S.I.S. SHULOV INNOVATIVE SCIENCE LTD., priority 2018, dated 2022).
Entries after “also recorded” stand apart in the source; their conditions may differ. Where a SMILES comes first, the peptide text is derived from it. [ ]: non-standard residue; d: D form. The star is where a group is joined. pGlu = O=C1CC[C@@H](C(=O)O)N1; Octanoyl = CCCCCCCC(=O)*

What was measured:
TNF alpha [1] = assay: Expression of TNF alpha by B6 macrophage cells treated with LPS and palmitic acid; format: cell-based, mouse; conditions: for % reduction of TNF alpha: relative to cells treated with LPS and PA
Protocol: Macrophages originating from C57BL/6 mice were cultured at a density of 200,000 cells/mL in a 24-well plate (500 μl wells) and incubated at 37° C. and 5% CO2 overnight. Following incubation, culture media in certain experimental groups were replaced with fresh media containing 100 ng/mL LPS, followed by three hours incubation. Then, the media (LPS-containing or LPS-free) in certain experimental groups were replaced with fresh media containing ZEP4 at concentrations ranging from 3.125 to 100 μg/ml, followed by one-hour incubation. Next, palmitic acid (PA, 200 μM) was added to the appropriate wells and the plates were incubated for additional 24 hours, then the amount of TNF alpha in each well was measured. Reduction in TNF alpha production in the treatment groups was calculated relative to cells treated with LPS and PA (CLP200).
Macrophages originating from C57BL/6 mice were cultured at a density of 200,000 cells/mL in a 24-well plate (500 μl wells) and incubated at 37° C. and 5% CO2 overnight. Following incubation, media were replaced with fresh media containing 100 ng/mL LPS, followed by three hours incubation. The LPS-containing media in the treatment groups were then replaced with fresh media containing ZEP4 at 50 μg/ml, followed by one-hour incubation. Then, aliquots of palmitic acid (100, 200 or 400 μM) were added to appropriate wells. The plates were incubated for additional 24 hour and the amount of TNF alpha in each well was measured. Reduction in TNF alpha production in the treatment groups was calculated relative to cells treated with LPS and PA, according to the PA concentration.
Macrophage cells originating from C57BL/6 mice were cultured at a density of 200,000 cells/mL in a 24-well plate (500 μl wells) and incubated at 37° C. and 5% CO2 overnight. Following incubation, media in certain experimental groups were replaced with fresh media containing 100 ng/mL LPS, followed by three hours incubation. Then, the media (LPS-containing or LPS-free) in certain experimental groups were replaced with fresh media containing ZEP3 at a concentration ranging from 3.125 to 100 μg/ml, followed by one-hour incubation. Next, palmitic acid (200 μM) aliquots were added to the appropriate wells and the plates were incubated for additional 24 hours, then the amount of TNF alpha in each well was measured. Reduction in TNF alpha production in the treatment groups was calculated relative to cells treated with LPS and PA.

[2] = test system: Reactive Oxygen Species (ROS); assay: ROS production in corneal epithelial cell culture dry eye disease model; format: cell-based, human
Protocol: The anti-inflammatory effect of the peptides in experimental corneal inflammation was tested in a cell culture model using various inflammasome inducers such as LPS, 4-HNE, Nigericin and others to model a dry-eye-disease (DED). Using a dose-response model, human primary corneal epithelial cells were pre-treated with the peptides followed by exposure to DED inducers. Expression of IL-6 was measured as well as cell viability, ROS production.
Human primary Corneal Epithelial Cells (PCS-700-010; HCECs) were treated with ZEP3 at concentrations ranging from 3 to 12 μg/ml for 2 hours then exposed to LPS, 4-HNE or Nigericin for 24 hours. Following incubation, the levels of the pro-inflammatory cytokine IL-6, cell viability and reactive oxygen species (ROS) production in the cell cultures were measured.

[3] = test system: oxazolone-induced atopic dermatitis (AD) mouse models; assay: Oxazolone-induced atopic dermatitis mouse model, clinical lesions; format: in vivo
Protocol: The effect of topical administration of ZEP3 (SEQ ID NO: 1), and its sodium salt form (ZEP3Na), and ZEP4 (SEQ ID NO: 2) was evaluated in oxazolone-induced atopic dermatitis (AD) mouse models. This model is widely used and well described in literature (Avci et al. 2013 Expert Opin Drug Discov. 8, 331-355; Petersen T. K. 2006, Basic Clin. Pharmacol. Toxicol. 99, 104-115) as an accepted animal model for evaluating drugs for AD therapy in humans.

TNF alpha [4] = assay: TNF alpha secretion in LPS treated human keratinocytes (ELISA); format: cell-based; conditions: for TNFα: ZEP3Na without DMSO; for Fold Change: refers to TNF-α concentration in sample #2; for % Inhibition: vs corresponding control group without peptide
Protocol: Methods: SCCE020 cells (EpiGRO™ Human Epidermal Keratinocytes) were grown in complete growth medium (EpiGRO™ Human Keratinocytes Complete Medium; Millipore Cat. #SCMK001) for 4 passages. At passage 5, cells were seeded (3*10^5 cells/well) in triplicates in a volume of 1 ml complete growth medium per well. Additional 3 control wells contained only medium without cells. Upon adherence, cell medium was replaced by basal medium containing L-Glutamine without supplements (starvation medium) and cells were starved overnight. The next day, 24 hours after seeding, the cells were treated with ZEP3 or ZEP3Na or appropriate diluent (PBS or DMSO). After 4 hours of incubation, LPS (from E. Coli 055: B5; Sigma Cat. #L6529-1MG) was added to the wells in final concentration of 20 or 30 μg/ml.
Cells were incubated for 24 hours in tissue culture incubator. After collecting cell supernatants from all wells, cells from treatment groups: 1, 2, 3, 8, 9, 10, 13, 14 (without DMSO groups) were pelleted and stored at −80° C. for further analyses. The cells were collected from as following: upon supernatants collection, the wells were rinsed with trypsin, then incubated with trypsin until they detached from the plate surface, centrifuged, washed with PBS and stored as a cell pellet. TNF-α concentration in the supernatants was measured by ELISA (Quantikine HS ELISA; R&D Systems Cat. #HSTA00D), in 5 replicates.
TNF alpha concentration in the samples was calculated according to the standard curve trend line equation: =0.063x+0.1718. Percent inhibition of TNF alpha production was calculated in each treatment group in comparison to the corresponding control group (same conditions, without peptide).

[5] = Oxazolone-induced atopic dermatitis mouse model, tolerability and bodyweights
Protocol: Method: Animals were sensitized by topical administration of oxazolone 2% in ethanol on the back at Day 0 after shaving and depilation of the animals (sensitization phase). Then a challenge was performed one week later by topical administration of oxazolone 1% in ethanol on the back and on right ear every 2 days at 10 occasions namely for total 3 weeks. The tested compounds were applied during the challenge phase every 2 days via the topical route as ready to use cream formulations. The surface of application was the same as for challenge (back+ear). 100 μL were deposited on the back and the back was smoothly massaged. Then, remaining formulation on finger glove was deposited on the internal face of the ear. Every other day, back skin and ears thickness were measured using caliper; and the following clinical scores were recorded from back skin: erythema and scaling. Animals were also weighed every other day (approximate bodyweights of a mouse at startup is about 20 g).
The formulations used for topical administration of the tested compound were: ZEP3 1% cream having pH 7.1 and comprising: Propylene glycol, Polysorbate 80, Edetate Disodium, Silicon dioxide (syloid), Methylparaben, White petrolatum, Isopropyl Myristate, Cetyl Alcohol and Glyceryl Monostearate. ZEP3Na 1% cream having pH 8.0 and comprising: Propylene glycol, Polysorbate 80, Edetate Disodium, Silicon dioxide (syloid), Methylparaben, White petrolatum, Isopropyl Myristate, Cetyl Alcohol and Glyceryl Monostearate. ZEP4 1% cream having pH 4.5 and comprising: Propylene glycol, Glycerin, Polysorbate 80, EDTA Disodium, Xanthan Gum, Silicon dioxide (syloid), Methylparaben, White petrolatum, Isopropyl Myristate, Cetyl Alcohol, Stearyl Alcohol, and Glyceryl Monostearate (kolliwax).

[6] = peptide 0.2 mg/ml, LPS 20 μg/ml
[7] = peptide 0.2 mg/ml, LPS 30 μg/ml
[8] = peptide 0.4 mg/ml, LPS 20 μg/ml

CCCCCCCC(=O)NCCCC[C@H](NC(=O)[C@H](Cc1c[nH]c2ccccc12)NC(=O)[C@H](CC(N)=O)NC(=O)[C@@H]1CCC(=O)N1)C(=O)O [ZEP3, pGlu-Asn-Trp-Lys(Octanoyl)-OH] ([pGlu]NWK(Octanoyl)-OH)
ED50 (reduction of TNF alpha expression) (TNF alpha [1]; macrophage cells treated with LPS 100 ng/mL and palmitic acid 200 μM, estimated): 51.94 µg/mL | TNF alpha (TNF alpha [1]; peptide 3.125 μg/ml, LPS 100 ng/mL, palmitic acid 200 μM, 24 hours): 41.98 pg/mL | % reduction of TNF alpha (TNF alpha [1]; peptide 3.125 μg/ml, LPS 100 ng/mL, palmitic acid 200 μM): 82.9% | TNF alpha (TNF alpha [1]; peptide 6.25 μg/ml, LPS 100 ng/mL, palmitic acid 200 μM, 24 hours): 75.52 pg/mL | % reduction of TNF alpha (TNF alpha [1]; peptide 6.25 μg/ml, LPS 100 ng/mL, palmitic acid 200 μM): 69.2% | TNF alpha (TNF alpha [1]; peptide 12.5 μg/ml, LPS 100 ng/mL, palmitic acid 200 μM, 24 hours): 74.83 pg/mL | % reduction of TNF alpha (TNF alpha [1]; peptide 12.5 μg/ml, LPS 100 ng/mL, palmitic acid 200 μM): 69.5% | TNF alpha (TNF alpha [1]; peptide 25 μg/ml, LPS 100 ng/mL, palmitic acid 200 μM, 24 hours): 61.57 pg/mL | % reduction of TNF alpha (TNF alpha [1]; peptide 25 μg/ml, LPS 100 ng/mL, palmitic acid 200 μM): 74.9% | TNF alpha (TNF alpha [1]; peptide 50 μg/ml, LPS 100 ng/mL, palmitic acid 200 μM, 24 hours): 106.75 pg/mL | % reduction of TNF alpha (TNF alpha [1]; peptide 50 μg/ml, LPS 100 ng/mL, palmitic acid 200 μM): 56.4% | TNF alpha (TNF alpha [1]; peptide 100 μg/ml, LPS 100 ng/mL, palmitic acid 200 μM, 24 hours): 176.22 pg/mL | % reduction of TNF alpha (TNF alpha [1]; peptide 100 μg/ml, LPS 100 ng/mL, palmitic acid 200 μM): 28.1% | TNF alpha (TNF alpha [1]; peptide control: peptide 100 μg/ml, no LPS, no palmitic acid): 10.44 pg/mL | level of ROS in cell culture ([2]; HCECs pre-treated with ZEP3, exposed to 4-HNE for 24 hours, DCFDA kit (FIG. 8)): 13000±800 RFU | reduction of ROS level ([2]; ZEP3 treated vs untreated cell culture, 4-HNE 24 hours (FIG. 8)): 51.9% | Scaling: period of reduction ([3]; 1% cream topical, 50 mg/kg, scaling score of back skin): reduced from days 18 to 24 | Significant difference on back thickness vs. control group 1 ([3]; day 20): −25.5% | Significant difference on back thickness vs. control group 1 ([3]; day 24): −16.6% | Right ear thickness, significant difference in comparison to control ([3]; days 20, 22 and 28): −10.1 to −18.0% | Erythema scoring: days with a significant difference ([3]; vs control group): days 22 and 24 | total score: days with significant difference ([3]; vs control group): days 20, 24 and 28 | TNF alpha levels / production in LPS treated human keratinocytes (in words) (TNF alpha [4]; compared with cells stimulated with LPS alone): effectively diminished; also recorded: dose dependent inhibition | TNFα (TNF alpha [4]; peptide 0.02 mg/ml, LPS 20 μg/ml, ZEP3 in 0.025% DMSO): 9.6 pg/mL | Fold Change (TNF alpha [4]; peptide 0.02 mg/ml, LPS 20 μg/ml): 3.4 | TNFα (TNF alpha [4]; peptide 0.2 mg/ml, LPS 20 μg/ml, ZEP3 in 0.05% DMSO): 6.0 pg/mL | Fold Change (TNF alpha [4]; [6]): 2.1 | % Inhibition (TNF alpha [4]; [6]): 32% | TNFα (TNF alpha [4]; peptide 0.2 mg/ml, LPS 30 μg/ml, ZEP3 in 0.10% DMSO): 17.3 pg/mL | Fold Change (TNF alpha [4]; [7]): 6.1 | % Inhibition (TNF alpha [4]; [7]): 20% | TNFα (TNF alpha [4]; peptide 0.4 mg/ml, LPS 20 μg/ml, ZEP3 in 0.10% DMSO): 4.6 pg/mL | Fold Change (TNF alpha [4]; [8]): 1.6 | % Inhibition (TNF alpha [4]; [8]): 48% | tolerability ([5]; 50 mg/kg topical to atopic dermatitis induced mice): well tolerated | Bodyweights in comparison to the excipient ([5]; day 8 to day 28): behaved normally
